Paper PMC10435460, “Ligand recognition and G protein coupling of the human itch receptor MRGPRX1” (Nature Communications, 2023)
Where two headings read alike, the source gives them in different places. Ends that are not written are not given here.

Columns and labels:
MRGPRX1 [1] = molecular target: T1, MRGPRX1 (Homo sapiens, UniProt Q96LB2); assay: Ligand bias factor (β value), Gi vs Gq, BAM8-22 as reference; type: cell-based; conditions: Suppl Fig 11f-h
T1 construct: we fused a BRIL tag at the N-terminus of full-length wild-type MRGPRX1; FLAG; expressed in transfected cells; host or cells: HEK293
Description: Human Embryonic Kidney 293 (HEK293) cells were obtained from the Cell Resource Center of Shanghai Institute for Biological Sciences (Chinese Academy of Sciences, Shanghai, China) and cultured in DMEM with 10% FBS for functional studies. Transient transfection in the current study was performed with Lipofectamine 2000 (Invitrogen), according to the manufacturer’s instructions. For studying the peptide-induced G-protein activation through MRGPRX1, G-protein BRET probes were generated according to previous publications[13],[30],[31]. HEK293 cells were transfected with plasmids MRGPRX1 and G-protein probes. After 24 h, cells were reseeded into a 96-well plate with a density of 30,000-50,000 cells per well and incubated for an additional 24 h at 37 °C. For peptide-stimulated activity measurement, the BRET signal between Rluc8 and GFP2 was recorded after the addition of peptide ligands (final concentration:10^−10 – 10^−3 M) and coelenterazine 400a. The BRET signal was calculated as the ratio of the GFP2 emission to the Rluc8 emission. […]
are presented as the mean ± SEM (n=3). All data were analyzed by two-sided one-way ANOVA with Turkey test. […] Both CNF-Tx2 and Chloroquine were assessed for Gi signaling (f) and Gq signaling (g). The bias factor (β value) of CNF-Tx2 and Chloroquine was calculated using BAM8-22 as the reference.
R3c). The β value was calculated according to formulas. […]

MRGPRX1 [2] = molecular target: T1, MRGPRX1; type: cell-based; set-up: Emax: unit not given here; conditions: for Δpec50: Fig 3d, CNF-Tx2 mutant peptide vs CNF-Tx2 WT; for Emax: Suppl Fig 9a, CNF-Tx2 WT and mutant peptides
Description: Human Embryonic Kidney 293 (HEK293) cells were obtained from the Cell Resource Center of Shanghai Institute for Biological Sciences (Chinese Academy of Sciences, Shanghai, China) and cultured in DMEM with 10% FBS for functional studies. Transient transfection in the current study was performed with Lipofectamine 2000 (Invitrogen), according to the manufacturer’s instructions. For studying the peptide-induced G-protein activation through MRGPRX1, G-protein BRET probes were generated according to previous publications[13],[30],[31]. HEK293 cells were transfected with plasmids MRGPRX1 and G-protein probes. After 24 h, cells were reseeded into a 96-well plate with a density of 30,000-50,000 cells per well and incubated for an additional 24 h at 37 °C. For peptide-stimulated activity measurement, the BRET signal between Rluc8 and GFP2 was recorded after the addition of peptide ligands (final concentration:10^−10 – 10^−3 M) and coelenterazine 400a. The BRET signal was calculated as the ratio of the GFP2 emission to the Rluc8 emission.

MRGPRX2 = assay: Gαi-Gγ dissociation assay (BRET); type: cell-based, human; conditions: Fig 1e
Description: Fig. 1 Cryo-EM structure of MRGPRX1-Gi1/Gq complexes. a Cryo-EM density map of the BAM8-22-MRGPRX1-Gi1/Gq complexes and CNF-Tx2-MRGPRX1-Gi1 complex. b EM density maps of BAM8-22 in MRGPRX1-Gi1/Gq complexes and CNF-Tx2 in MRGPRX1-Gi1 complex. BAM8-22 in MRGPRX1-Gi1/Gq complexes, hot pink/cyan; CNF-Tx2, light pink; MRGPRX1, cornflower blue, salmon, and medium aquamarine from left to right; Gαi, dark orange; Gαq, yellow; Gβ, wheat; Gγ, light blue; scFv16 (single-chain variable fragment), gray. c Cut-away view of the ligand-binding pocket in the BAM8-22-MRGPRX1-Gi1/Gq, CNF-Tx2-MRGPRX1-Gi1, PAMP-12-MRGPRX2-Gi1 and KCA-CB1-Gi1 complexes. d The binding modes of the peptide agonists of MRGPRX1 compared with MRGPRX2. e The selectivity of different ligands for MRGPRX1 and MRGPRX2 was evaluated using Gαi-Gγ dissociation assay. Data are mean ± SEM of three independent experiments (n = 3). ΔBRET indicates the difference between the BRET signal recorded from cells treated with ligand and that from cells treated with vehicle.
Human Embryonic Kidney 293 (HEK293) cells were obtained from the Cell Resource Center of Shanghai Institute for Biological Sciences (Chinese Academy of Sciences, Shanghai, China) and cultured in DMEM with 10% FBS for functional studies. […] The BRET signal was calculated as the ratio of the GFP2 emission to the Rluc8 emission.

T1 sequence (Q96LB2 whole entry, the tested form may be a part): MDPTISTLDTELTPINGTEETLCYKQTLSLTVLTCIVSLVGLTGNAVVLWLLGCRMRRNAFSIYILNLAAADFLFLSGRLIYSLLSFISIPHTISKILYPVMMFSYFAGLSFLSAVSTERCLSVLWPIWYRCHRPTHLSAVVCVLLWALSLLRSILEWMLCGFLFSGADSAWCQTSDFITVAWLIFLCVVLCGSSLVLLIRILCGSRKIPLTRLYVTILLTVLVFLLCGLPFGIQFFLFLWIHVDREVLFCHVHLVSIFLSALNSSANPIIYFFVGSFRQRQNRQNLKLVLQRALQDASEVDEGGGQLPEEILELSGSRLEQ

Row | Compound | Δpec50 (MRGPRX1 [2]; replicate 2) | Δpec50 (MRGPRX1 [2]; replicate 3) | Emax (MRGPRX1 [2]; replicate 1) | Emax (MRGPRX1 [2]; replicate 3) | also measured
1 | CCN(CC)CCCC(C)Nc1ccnc2cc(Cl)ccc12 (stereo not shown) [Chloroquine, chloroquine] |  |  |  |  | bias property, Gi vs Gq (MRGPRX1 [1]): Gq bias ligand
2 | HSGILLAWSGPRNRAVRI-NH2 (C-terminus assumed) [F15A] | -6.871 | -1.837 | -0.06154 | -0.06172 | 
3 | HSGILLAWSGPRNRF-NH2 (C-terminus assumed) [ΔVRI] | -0.3933 | -0.1993 | 5.805 | -0.003279 | Emax (MRGPRX1 [2]; replicate 2): 0.1588; effect of C-terminal truncation on MRGPRX1 activity (MRGPRX1 [2]; compared to CNF-Tx2 wide-type peptide, Fig R4): almost abolished the activity of MRGPRX1
4 | Hemoglobin b-chain(34-42): hemoglobin β-chain fragment, peptide ligand of MRGPRX1 (VVYPWTQRF; UniProt P68871 34-42, looked up, fragment) [reference compound] |  |  |  |  | potency and efficacy at MRGPRX1 (MRGPRX1 [2]; Suppl Fig 11c): reasonable potency and efficacy
5 | bovine adrenal medulla peptide (BAM) 8-22 [BAM8-22] |  |  |  |  | recognition by MRGPRX2 (MRGPRX2): cannot be recognized by MRGPRX2
